Data reported in article PMC9781444, “Pyridyl Methylsulfinyl Benzimidazole Derivatives as Promising Agents against Giardia lamblia and Trichomonas vaginalis” (Molecules, 2022).
Where two headings read alike, the source gives them in different places.

Experiments:
TvG6PD::6PGL [1] = biological target: T1, TvG6PD::6PGL (Trichomonas vaginalis, UniProt A2DBT5); conditions: cited from earlier work
GlG6PD::6PGL [2] = biological target: T2, GlG6PD::6PGL (Giardia intestinalis, UniProt A8BWM5); experiment: GlG6PD::6PGL enzyme inactivation assay; format: biochemical, G. lamblia; conditions: for Inhibition (%) at 400 µM of GlG6PD::6PGL: 400 µM compound, 0.2 mg/mL enzyme, 37 °C, 2 h, relative to enzyme without inhibitor; for inhibition at 400 µM: read-out: Inhibition (%) at 400 µM of GlG6PD::6PGL; for kinact/KI: read-out: second-order inactivation rate constant k2, GlG6PD::6PGL
T2 sequence (A8BWM5 entry or part of it): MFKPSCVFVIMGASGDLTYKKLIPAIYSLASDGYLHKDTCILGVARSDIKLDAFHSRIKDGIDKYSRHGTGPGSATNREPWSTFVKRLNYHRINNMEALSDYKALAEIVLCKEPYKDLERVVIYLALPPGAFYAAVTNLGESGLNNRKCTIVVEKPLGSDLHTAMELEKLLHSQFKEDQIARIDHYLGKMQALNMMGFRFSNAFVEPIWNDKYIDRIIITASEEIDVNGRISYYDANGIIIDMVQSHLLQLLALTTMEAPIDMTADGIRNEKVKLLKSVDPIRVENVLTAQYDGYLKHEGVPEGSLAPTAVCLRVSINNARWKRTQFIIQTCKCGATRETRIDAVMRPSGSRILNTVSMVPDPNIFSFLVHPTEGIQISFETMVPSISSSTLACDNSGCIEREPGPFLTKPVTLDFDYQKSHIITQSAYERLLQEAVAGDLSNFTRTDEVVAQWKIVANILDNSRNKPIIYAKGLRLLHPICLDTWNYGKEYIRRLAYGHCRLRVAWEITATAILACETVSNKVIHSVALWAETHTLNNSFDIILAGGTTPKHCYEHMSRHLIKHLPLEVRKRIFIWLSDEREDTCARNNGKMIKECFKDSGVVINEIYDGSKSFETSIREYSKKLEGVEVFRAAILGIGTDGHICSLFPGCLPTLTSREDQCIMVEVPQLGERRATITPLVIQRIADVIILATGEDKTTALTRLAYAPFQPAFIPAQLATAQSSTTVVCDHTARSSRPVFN
Experimental: (§1) The G6PD domain activity of the recombinant proteins was spectrophotometrically measured at 25 °C by monitoring the reduction in NADP^+ at 340 nm. The assay was performed with 1 mL of standard reaction mixture containing 0.1 M Tris-HCl, 0.01 M MgCl2, 1 mM NADP^+, and 1 mM glucose-6-phosphate (G6P) at pH 8.3. The reaction was initiated with the addition of 1 µg/mL fused GlG6PD::6PGL or TvG6PD::6PGL enzymes.
(§2) Inactivation assays were performed with the compounds against GlG6PD::6PGL and TvG6PD::6PGL. Thus, all the compounds were activate immediately before the experiments as previously reported and diluted using dimethyl sulfoxide (DMSO) as a solvent. For the assay, 0.2 mg/mL of the enzyme was incubated with the compounds at a concentration of 400 µM at 37 °C for 2 h. Following incubation, the activity was measured with a standard reaction mixture. Only the compounds that reduced the activity of the enzyme by more than 50% were used in the subsequent experiments.
(§3) Then, aliquots from these incubations were withdrawn, and the residual activity was determined under standard conditions. The results are reported as the percentage of residual activity (using the activity of each enzyme incubated without any compound as 100% activity) versus the compound’s concentration.
(§4) The second-order rate constants of inactivation for each one of the compounds were calculated by obtaining the pseudo-first-order rate constant (k1) values. Pseudo-first-order inactivation rate constants (k1) were obtained at four or five fixed concentrations for each of the compounds. At the indicated times, aliquots were withdrawn to determine residual activity. Then, residual activity data were fitted using the monoexponential decay equation, as previously reported. The previously obtained k1 values were replotted against the concentrations of each compound, and the slope created by these plots corresponds to the second-order inactivation constant k2 (M^−1·s^−1).

TvG6PD::6PGL [3] = biological target: T1, TvG6PD::6PGL; experiment: TvG6PD::6PGL enzyme inactivation assay; format: biochemical, T. vaginalis; conditions: for inhibition at 400 µM: read-out: Inhibition (%) at 400 µM of TvG6PD::6PGL, 400 µM compound, 0.2 mg/mL enzyme, 37 °C, 2 h, relative to enzyme without inhibitor; for kinact/KI: read-out: second-order inactivation rate constant k2, TvG6PD::6PGL, slope of k1 versus compound concentration
Experimental: as §1, §2, §3, §4

GlG6PD::6PGL [4] = biological target: T2, GlG6PD::6PGL; experiment: Circular dichroism of GlG6PD::6PGL with compounds; parameters: species or system G. lamblia; conditions: compound at IC50 concentration, 2 h, 37 °C, protein 0.5 mg/mL
Experimental: One control containing only enzyme was used in each assay. Then, the proteins were loaded in a quartz cell with a 0.1 cm path length, and spectral scans were recorded at 25 °C in ultraviolet circular dichroism (UV-CD) ranging from 200 to 260 nm. The spectra of the blanks (buffer P solution containing each of the compounds) were subtracted from all the obtained spectra that contained the protein. All the CD data were reported as molar ellipticity. The experiments were performed in triplicate.

[5] = test system: T. vaginalis trophozoites; experiment: Anti-T. vaginalis assay (trophozoite viability, trypan blue); format: cell-based; conditions: for reduction of T. vaginalis trophozoite viability at 6 µM / reduction of T. vaginalis trophozoite viability at 100 μM / IC50: 24 h; for reduction of T. vaginalis trophozoite viability at 100 μM: relative to negative control; for selectivity index (SI), T. vaginalis: Caco-2 CC50 relative to T. vaginalis IC50; for IC50: Trichomonas vaginalis, trophozoites, 37 °C
Experimental: The isolate T. vaginalis, Donne ATCC 30236 was axenically grown in trypticase–yeast extract–maltose (TYM) medium (pH 6.0), supplemented with 10% sterile horse serum (previously inactivated at 56 °C for 30 min), and incubated at 37 °C under microaerobic conditions. The trophozoites were axenically maintained, and a trypan blue (0.4%) exclusion assay was performed to ensure that the minimum viability of 95% and logarithmic growth phase were achieved before proceeding to the antiparasitic assay.
Drug susceptibility assays were performed to analyze the trichomonacidal potential of O2N-BZM7 and O2N-BZM9 compounds against T. vaginalis, as previously described. The compounds were diluted in dimethylsulfoxide (DMSO) as a vehicle for solubilization. […] Trophozoites were adjusted to an initial density of 2.6 × 10^5 trophozoites/mL of TYM medium. Then, 1.5 mL tubes were seeded with […] of T. vaginalis trophozoites/tubes (2.6 × 10^5 trophozoites/mL), O2N-BZM7 and O2N-BZM9 were added, and tubes were incubated at 37 °C with 5% CO2 for 24 h. After incubation, trophozoites were counted with trypan blue (0.4%) (1:1, v/v) on a Neubauer chamber to determine the trophozoites’ motility, morphology, and viability. Three controls were used in each assay: a negative control containing only trophozoites, a 0.06% DMSO control, and a positive control containing MTZ at 100 μM (Sigma-Aldrich, St. Louis, MO, USA). The IC50 was calculated using the GraphPad Prism 8.0 software Inc. version 8.0.2 (263) (San Diego, CA, USA).

TvG6PD::6PGL [6] = biological target: T1, TvG6PD::6PGL; experiment: Intrinsic fluorescence of TvG6PD::6PGL with compounds; parameters: species or system T. vaginalis; conditions: compound at IC50 concentration, 2 h, 37 °C; native protein 673 a.u.
Experimental: (§5) The effect of the compounds on the tertiary structure (3D) of the GlG6PD::6PGL and TvG6PD::6PGL proteins was evaluated by monitoring the changes in the intrinsic and extrinsic fluorescence using a Perkin-Elmer LS-55 spectrofluorometer (Perkin-Elmer, Wellesley, MA, USA). […] Following incubation, the proteins were excited at 280 nm, and we recorded the emission spectra from 310 to 500 nm with a scan speed of 150 nm/min using excitation and emission slits of 4 and 8 nm, respectively. The spectra of the blanks (buffer phosphate containing each of the compounds) were subtracted from all the obtained spectra that contained the protein, and the spectrum of the enzyme without the compound was used as control. The final spectrum for each compound was the average of five scans.

GlG6PD::6PGL [7] = biological target: T2, GlG6PD::6PGL; experiment: Intrinsic fluorescence of GlG6PD::6PGL with compounds; parameters: species or system G. lamblia; conditions: compound at IC50 concentration, 2 h, 37 °C; for maximum intrinsic fluorescence intensity of GlG6PD::6PGL: control 874 a.u.
Experimental: as §5

GlTIM = test system: GlTIM; parameters: method as in PMID 32882836; conditions: cited from earlier work; for IC50: read-out: IC50 TIM enzyme from G. lamblia
G. lamblia [8] = experiment: In vitro antigiardial activity; format: cell-based; conditions: for selectivity index (SI), G. lamblia: Caco-2 CC50 relative to G. lamblia IC50
G. lamblia [9] = test system: G. lamblia; parameters: method as in PMID 32882836; conditions: previous study; cited from earlier work
Caco-2 cells = conditions: read-out: Caco-2 CC50, metronidazole; cited from earlier work

T1 sequence (A2DBT5 entry or part of it): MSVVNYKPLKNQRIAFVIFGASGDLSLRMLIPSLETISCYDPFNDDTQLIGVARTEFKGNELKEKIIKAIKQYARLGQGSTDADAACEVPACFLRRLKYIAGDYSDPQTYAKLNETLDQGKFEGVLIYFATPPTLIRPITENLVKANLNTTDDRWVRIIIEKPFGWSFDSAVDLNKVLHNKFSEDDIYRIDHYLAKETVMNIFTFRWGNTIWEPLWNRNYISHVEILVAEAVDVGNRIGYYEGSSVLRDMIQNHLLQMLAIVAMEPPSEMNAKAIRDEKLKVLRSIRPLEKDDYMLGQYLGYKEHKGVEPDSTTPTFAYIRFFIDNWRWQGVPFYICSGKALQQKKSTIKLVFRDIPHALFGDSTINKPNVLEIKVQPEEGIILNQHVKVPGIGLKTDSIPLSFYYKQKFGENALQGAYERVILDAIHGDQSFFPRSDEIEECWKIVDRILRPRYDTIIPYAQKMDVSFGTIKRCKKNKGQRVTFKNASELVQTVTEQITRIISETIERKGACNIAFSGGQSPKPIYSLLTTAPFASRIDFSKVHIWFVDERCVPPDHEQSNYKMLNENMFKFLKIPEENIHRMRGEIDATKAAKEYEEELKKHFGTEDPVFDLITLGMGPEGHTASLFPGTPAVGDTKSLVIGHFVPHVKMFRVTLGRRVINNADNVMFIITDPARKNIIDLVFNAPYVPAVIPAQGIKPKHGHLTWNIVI

## O=C(Nc1ccc(Cl)cc1)Nc1ncc([N+](=O)[O-])s1 [CNZ-3]
TvG6PD::6PGL [1]
  k2 for TvG6PD::6PGL protein, in-house library compounds: 0.66 M⁻¹ s⁻¹

## Cc1c(OCC(F)(F)F)ccnc1C[S+]([O-])c1nc2ccc(N)cc2[nH]1 (stereo not shown) [Compound H2N-BZM6, 2-{[3-methyl-4-(2,2,2-trifluoroethoxy)pyridin-2-yl]methanesulfinyl}-1H-benzimidazol-6-amine]
GlG6PD::6PGL [2]
  Inhibition (%) at 400 µM of GlG6PD::6PGL: complete activity of the GlG6PD::6PGL enzyme was eradicated
  inhibition at 400 µM: 100 ± 5%
TvG6PD::6PGL [3]
  inhibition at 400 µM: 12 ± 5%

## O=[N+]([O-])c1ccc2nc([S+]([O-])Cc3ccccn3)[nH]c2c1 (stereo not shown) [Compound O2N-BZM7, 6-nitro-2-[(pyridin-2-yl)methanesulfinyl]-1H-benzimidazole]
GlG6PD::6PGL [4]
  change of secondary structure (CD spectra) of GlG6PD::6PGL: did not induce alterations of the secondary structure
[5]
  reduction of T. vaginalis trophozoite viability at 6 µM: 52%
  reduction of T. vaginalis trophozoite viability at 100 μM: 100%
  selectivity index (SI), T. vaginalis: 106
  IC50: 6 µM
TvG6PD::6PGL [6]
  maximal intrinsic fluorescence intensity of TvG6PD::6PGL: 415 a.u.
GlG6PD::6PGL [2]
  Inhibition (%) at 400 µM of GlG6PD::6PGL: complete activity of the GlG6PD::6PGL enzyme was eradicated
  inhibition at 400 µM: 100 ± 5%
  kinact/KI: 1.9 M⁻¹ s⁻¹
GlG6PD::6PGL [7]
  reduction of intrinsic fluorescence of GlG6PD::6PGL compared to control: 62%
  maximum intrinsic fluorescence intensity of GlG6PD::6PGL: 329 a.u.
TvG6PD::6PGL [3]
  kinact/KI: 0.85 M⁻¹ s⁻¹
GlTIM
  k2 for inactivation of GlTIM enzyme: 3.2 M⁻¹ s⁻¹
  IC50: 12 µM
G. lamblia [8]
  selectivity index (SI), G. lamblia: 45
G. lamblia [9]
  IC50: 14 µM

## Cc1c(OCC(F)(F)F)ccnc1C[S+]([O-])c1nc2ccc([N+](=O)[O-])cc2[nH]1 (stereo not shown) [Compound O2N-BZM9, 2-{[3-methyl-4-(2,2,2-trifluoroethoxy)pyridin-2-yl]methanesulfinyl}-6-nitro-1H-benzimidazole]
GlG6PD::6PGL [4]
  change of secondary structure (CD spectra) of GlG6PD::6PGL: did not induce alterations of the secondary structure
[5]
  reduction of T. vaginalis trophozoite viability at 6 µM: 52%
  reduction of T. vaginalis trophozoite viability at 100 μM: 100%
  selectivity index (SI), T. vaginalis: 160
  IC50: 4 µM
TvG6PD::6PGL [6]
  maximal intrinsic fluorescence intensity of TvG6PD::6PGL: 102 a.u.
GlG6PD::6PGL [2]
  IC50: 15 µM
  Inhibition (%) at 400 µM of GlG6PD::6PGL: complete activity of the GlG6PD::6PGL enzyme was eradicated
  inhibition at 400 µM: 100 ± 5%
  kinact/KI: 6.1 M⁻¹ s⁻¹
GlG6PD::6PGL [7]
  reduction of intrinsic fluorescence of GlG6PD::6PGL compared to control: 62%
  maximum intrinsic fluorescence intensity of GlG6PD::6PGL: 329 a.u.
TvG6PD::6PGL [3]
  inhibition at 400 µM: > 70%
  kinact/KI: 1.62 M⁻¹ s⁻¹
GlTIM
  k2 for inactivation of GlTIM enzyme: 2.8 M⁻¹ s⁻¹
  IC50: 20 µM
G. lamblia [8]
  selectivity index (SI), G. lamblia: 39
G. lamblia [9]
  IC50: 17 µM

## [O-][S+](Cc1ccccn1)c1nc2ccccc2[nH]1 (stereo not shown) [H-BZM1, 2-[(pyridin-2-yl)methanesulfinyl]-1H-benzimidazole]
GlG6PD::6PGL [2]
  inhibition at 400 µM: 62 ± 5%
TvG6PD::6PGL [3]
  inhibition at 400 µM: 7 ± 5%

## COc1c(C)cnc(C[S+]([O-])c2nc3ccccc3[nH]2)c1C (stereo not shown) [H-BZM2, 2-[(4-methoxy-3,5-dimethylpyridin-2-yl)methanesulfinyl]-1H-benzimidazole]
GlG6PD::6PGL [2]
  IC50: 24 µM
  Inhibition (%) at 400 µM of GlG6PD::6PGL: complete activity of the GlG6PD::6PGL enzyme was eradicated
  inhibition at 400 µM: 100 ± 5%
  kinact/KI: 3.3 M⁻¹ s⁻¹
TvG6PD::6PGL [3]
  inhibition at 400 µM: 47 ± 5%
GlTIM
  IC50: 37 µM

## O=C(COc1ccc(/C=C2\SC(=O)NC2=O)cc1)NC1CCN(Cc2ccccc2)CC1 [MCC-7]
TvG6PD::6PGL [1]
  k2 for TvG6PD::6PGL protein, in-house library compounds: 0.26 M⁻¹ s⁻¹

## Cc1ncc([N+](=O)[O-])n1CCO [Metronidazole, reference compound]
[5]
  selectivity index (SI), T. vaginalis: 1.6
  IC50: 12 µM
G. lamblia [8]
  selectivity index (SI), G. lamblia: 3.9
G. lamblia [8]; Giardia duodenalis, no reference given, read-out: G. lamblia IC50, metronidazole positive control
  IC50: 4.8 µM
Caco-2 cells
  CC50: 19 µM
